System: ornithine decarboxylase (ODC)
Experiment: Inhibition of TPA induction of ornithine decarboxylase (ODC assay)
Type: biochemical
Description: A classic measure of retinoic acid activity involves measuring the effects of retinoic acid on ornithine decarboxylase. The original work on the correlation between retinoic acid and decrease in cell proliferation was done by Verma & Boutwell, Cancer Research, 1977, 37,2196-2201. That reference discloses that ornithine decarboxylase (ODC) activity increased precedent to polyamine biosynthesis. It has been established elsewhere that increases in polyamine synthesis can be correlated or associated with cellular proliferation. Thus, if ODC activity could be inhibited, cell hyperproliferation could be modulated. Although all cases for ODC activity increases are unknown, it is known that 12-O-tetradecanoylphorbol-13-acetate (TPA) induces ODC activity. Retinoic acid inhibits this induction of ODC activity by TPA. […] Activity of exemplary compounds of the present invention in the above-described ODC assay is disclosed in Table 1 which provides the IC60 concentration for the respective exemplary compound. ("IC60 " is that concentration of the test compound which causes 60% inhibition in the ODC assay. By analogy, "IC80, for example, is that concentration of the test compound which causes 80% inhibition in the ODC assay.)

| Structure (SMILES) | IC60 (concentration causing 60% inhibition in the ODC assay (TPA-induced)) | IC80 (concentration causing 80% inhibition in the ODC assay (TPA-induced), marked (IC80) in the IC60 column) |
| --- | --- | --- |
| CCOC(=O)c1ccc(N=Nc2ccc3c(c2)/C(=N/OC)CCC3(C)C)cc1 [Compound D3, Ethyl 4-[(8(7H)-anti-(O-methyl oxime)-5,5-dimethyl-5,6-dihydronaphthalen-2-yl)azo]benzoate] | 8.4 nmols |  |
| CC1(C)CC=C(c2cccs2)c2ccc(C(=O)C=Cc3ccc(C(=O)O)cc3)cc21 [Compound D34, 4-[3-oxo-3-(7,8-dihydro-5-(2-thienyl)-8,8-dimethyl-2-naphthalenyl)-1-propenyl]-benzoic acid] |  | 4.3 nmols |
